Values after ≈ are worked out from the molar mass of the structure shown.
Columns and labels:
[1] = tested on: Haemophilus influenzae; assay: In vitro antimicrobial activity against Haemophilus influenzae.; type: functional
[2] = tested on: Streptococcus pyogenes; assay: In vitro antimicrobial activity against Streptococcus pyogenes C203; type: functional
[3] = tested on: Enterococcus faecium; assay: In vitro antimicrobial activity against Streptococcus faecium X66; type: functional, streptococcus fae-cium
[4] = tested on: Staphylococcus aureus; assay: In vitro antimicrobial activity against Staphylococcus aureus X1; type: functional
[5] = tested on: Streptococcus pneumoniae; assay: In vitro antimicrobial activity against Streptococcus pneumoniae; type: functional
[6] = tested on: Staphylococcus epidermidis; assay: In vitro antimicrobial activity against Staphylococcus epidermidis EPI1; type: functional

| Structure (SMILES) | MIC [1] [µg/mL] | MIC [2] [µg/mL] | MIC [3] [µg/mL] | MIC [4] [µg/mL] | MIC [5] [µg/mL] | MIC [6] [µg/mL] |
| --- | --- | --- | --- | --- | --- | --- |
| CC[C@H]1OC(=O)C[C@@H](O)[C@H](C)[C@@H](O[C@@H]2O[C@H](C)[C@@H](O[C@H]3C[C@@](C)(O)[C@@H](O)[C@H](C)O3)[C@H](N(C)C)[C@H]2O)[C@@H](CCN2CCCCCCC2)C[C@@H](C)C(=O)/C=C/C(C)=C/[C@@H]1CO[C@@H]1O[C@H](C)[C@@H](O)[C@@H](O)[C@H]1OC | > 128 | 2 (≈ 2 µM) | 64 (≈ 64 µM) | 4 (≈ 4 µM) | 16 (≈ 16 µM) | 8 (≈ 8.01 µM) |
| CC[C@H]1OC(=O)C[C@@H](O)[C@H](C)[C@@H](O[C@@H]2O[C@H](C)[C@@H](O)[C@H](N(C)C)[C@H]2O)[C@@H](CCOC(C)=O)C[C@@H](C)C(=O)/C=C/C(C)=C/[C@@H]1CO[C@@H]1O[C@H](C)[C@@H](O)[C@@H](OC)[C@H]1OC | 16 (≈ 19.6 µM) | 0.12 (≈ 0.147 µM) | 8 (≈ 9.8 µM) | 0.5 (≈ 0.613 µM) | 2 (≈ 2.45 µM) | 0.25 (≈ 0.306 µM) |
| CC[C@H]1OC(=O)C[C@@H](O)[C@H](C)[C@@H](O[C@@H]2O[C@H](C)[C@@H](O[C@H]3C[C@@](C)(O)[C@@H](O)[C@H](C)O3)[C@H](N(C)C)[C@H]2O)[C@@H](CCN2C(=O)c3ccccc3C2=O)C[C@@H](C)C(=O)/C=C/C(C)=C/[C@@H]1CO | > 128 | 128 (≈ 147 µM) | > 128 | 64 (≈ 73.3 µM) | 16 (≈ 18.3 µM) | 32 (≈ 36.7 µM) |
| CC[C@H]1OC(=O)C[C@@H](O)[C@H](C)[C@@H](O[C@@H]2O[C@H](C)[C@@H](O[C@H]3C[C@@](C)(O)[C@@H](O)[C@H](C)O3)[C@H](N(C)C)[C@H]2O)[C@@H](CCNCCc2ccccc2)C[C@@H](C)C(=O)/C=C/C(C)=C/[C@@H]1CO | 64 (≈ 75.6 µM) | 8 (≈ 9.44 µM) | 32 (≈ 37.8 µM) | 16 (≈ 18.9 µM) | 4 (≈ 4.72 µM) | 16 (≈ 18.9 µM) |
| CC[C@H]1OC(=O)C[C@@H](O)[C@H](C)[C@@H](O[C@@H]2O[C@H](C)[C@@H](O)[C@H](N(C)C)[C@H]2O)[C@@H](CCI)C[C@@H](C)C(=O)/C=C/C(C)=C/[C@@H]1CO[C@@H]1O[C@H](C)[C@@H](O)[C@@H](O)[C@H]1OC | 32 (≈ 36.8 µM) | 0.5 (≈ 0.575 µM) | 16 (≈ 18.4 µM) | 0.5 (≈ 0.575 µM) | 2 (≈ 2.3 µM) | 0.5 (≈ 0.575 µM) |
| CC[C@H]1OC(=O)C[C@@H](O)[C@H](C)[C@@H](O[C@@H]2O[C@H](C)[C@@H](O)[C@H](N(C)C)[C@H]2O)[C@@H](CCO[N+](=O)[O-])C[C@@H](C)C(=O)/C=C/C(C)=C/[C@@H]1CO[C@@H]1O[C@H](C)[C@@H](O)[C@@H](OC)[C@H]1OC | 16 (≈ 19.5 µM) | 0.25 (≈ 0.305 µM) | 8 (≈ 9.77 µM) | 0.25 (≈ 0.305 µM) | 2 (≈ 2.44 µM) | 0.25 (≈ 0.305 µM) |
| CC[C@H]1OC(=O)C[C@@H](O)[C@H](C)[C@@H](O[C@@H]2O[C@H](C)[C@@H](O)[C@H](N(C)C)[C@H]2O)[C@@H](CC=O)C[C@@H](C)C(=O)/C=C/C(C)=C/[C@@H]1C | 1 (≈ 1.72 µM) | 0.25 (≈ 0.43 µM) | 0.5 (≈ 0.859 µM) | 0.25 (≈ 0.43 µM) | 0.12 (≈ 0.206 µM) | 0.25 (≈ 0.43 µM) |
| CC[C@H]1OC(=O)C[C@@H](O)[C@H](C)[C@@H](O[C@@H]2O[C@H](C)[C@@H](O[C@H]3C[C@@](C)(O)[C@@H](O)[C@H](C)O3)[C@H](N(C)C)[C@H]2O)[C@@H](CCOC(C(F)(F)F)C(F)(F)F)C[C@@H](C)C(=O)/C=C/C(C)=C/[C@@H]1CO[C@@H]1O[C@H](C)[C@@H](O)[C@@H](OC)[C@H]1OC | > 128 | 8 (≈ 7.49 µM) | > 128 | 4 (≈ 3.74 µM) | 32 (≈ 30 µM) | 4 (≈ 3.74 µM) |
| CC[C@H]1OC(=O)C[C@@H](O)[C@H](C)[C@@H](O[C@@H]2O[C@H](C)[C@@H](O)[C@H](N(C)C)[C@H]2O)[C@@H](CCOc2ccc(C=O)cc2)C[C@@H](C)C(=O)/C=C/C(C)=C/[C@@H]1CO[C@@H]1O[C@H](C)[C@@H](O)[C@@H](OC)[C@H]1OC | 16 (≈ 18.2 µM) | 1 (≈ 1.14 µM) | 4 (≈ 4.56 µM) | 0.25 (≈ 0.285 µM) | 1 (≈ 1.14 µM) | 0.25 (≈ 0.285 µM) |
| CC[C@H]1OC(=O)C[C@@H](O)[C@H](C)[C@@H](O[C@@H]2O[C@H](C)[C@@H](O[C@H]3C[C@@](C)(O)[C@@H](O)[C@H](C)O3)[C@H](N(C)C)[C@H]2O)[C@@H](CC=O)C[C@@H](C)C(=O)/C=C/C(C)=C/[C@@H]1C | 8 (≈ 11 µM) | 0.25 (≈ 0.344 µM) | 0.5 (≈ 0.689 µM) | 0.5 (≈ 0.689 µM) | 0.12 (≈ 0.165 µM) | 0.5 (≈ 0.689 µM) |
| CC[C@H]1OC(=O)C[C@@H](O)[C@H](C)[C@H]2OCC[C@H]2C[C@@H](C)C(=O)/C=C/C(C)=C/[C@@H]1CO[C@@H]1O[C@H](C)[C@@H](O)[C@@H](OC)[C@H]1OC | > 128 | > 128 | > 128 | > 128 | > 128 | > 128 |
| CC[C@H]1OC(=O)C[C@@H](O)[C@H](C)[C@@H](O[C@@H]2O[C@H](C)[C@@H](O)[C@H](N(C)C)[C@H]2O)[C@@H](CCO)C[C@@H](C)C(=O)/C=C/C(C)=C/[C@@H]1C | 32 (≈ 54.8 µM) | 16 (≈ 27.4 µM) | 32 (≈ 54.8 µM) | 4 (≈ 6.85 µM) | 16 (≈ 27.4 µM) | 16 (≈ 27.4 µM) |

Second part, the compound after the results:

| MIC [1] [µg/mL] | MIC [2] [µg/mL] | MIC [3] [µg/mL] | MIC [4] [µg/mL] | MIC [5] [µg/mL] | MIC [6] [µg/mL] | Structure (SMILES) |
| --- | --- | --- | --- | --- | --- | --- |
| 64 (≈ 87.8 µM) | 64 (≈ 87.8 µM) | 16 (≈ 22 µM) | 4 (≈ 5.49 µM) | 64 (≈ 87.8 µM) | 4 (≈ 5.49 µM) | CC[C@H]1OC(=O)C[C@@H](O)[C@H](C)[C@@H](O[C@@H]2O[C@H](C)[C@@H](O)[C@H](N(C)C)[C@H]2O)[C@@H](CCN2C(=O)c3ccccc3C2=O)C[C@@H](C)C(=O)/C=C/C(C)=C/[C@@H]1CO |
| > 128 | 4 (≈ 3.82 µM) | 32 (≈ 30.6 µM) | 0.5 (≈ 0.478 µM) | 4 (≈ 3.82 µM) | 1 (≈ 0.956 µM) | CC[C@H]1OC(=O)C[C@@H](O)[C@H](C)[C@@H](O[C@@H]2O[C@H](C)[C@@H](O[C@H]3C[C@@](C)(O)[C@@H](O)[C@H](C)O3)[C@H](N(C)C)[C@H]2O)[C@@H](CCOc2ncnc3ccccc23)C[C@@H](C)C(=O)/C=C/C(C)=C/[C@@H]1CO[C@@H]1O[C@H](C)[C@@H](O)[C@@H](OC)[C@H]1OC |
| 128 (≈ 180 µM) | 64 (≈ 89.8 µM) | 32 (≈ 44.9 µM) | 8 (≈ 11.2 µM) | 64 (≈ 89.8 µM) | 8 (≈ 11.2 µM) | CC[C@H]1OC(=O)C[C@@H](O)[C@H](C)[C@@H](O[C@@H]2O[C@H](C)[C@@H](O)[C@H](N(C)C)[C@H]2O)[C@@H](CCN2C(=O)c3ccccc3C2=O)C[C@@H](C)C(=O)/C=C/C(C)=C/[C@@H]1C |
| 64 (≈ 113 µM) | 8 (≈ 14.1 µM) | 64 (≈ 113 µM) | 8 (≈ 14.1 µM) | 16 (≈ 28.2 µM) | 16 (≈ 28.2 µM) | CC[C@H]1C[C@@H](C)C(=O)/C=C/C(C)=C/[C@H](C)[C@@H](CC)OC(=O)C[C@@H](O)[C@H](C)[C@H]1O[C@@H]1O[C@H](C)[C@@H](O)[C@H](N(C)C)[C@H]1O |
| 64 (≈ 77 µM) | 2 (≈ 2.41 µM) | 8 (≈ 9.63 µM) | 4 (≈ 4.81 µM) | 1 (≈ 1.2 µM) | 4 (≈ 4.81 µM) | CC[C@H]1OC(=O)C[C@@H](O)[C@H](C)[C@@H](O[C@@H]2O[C@H](C)[C@@H](O[C@H]3C[C@@](C)(O)[C@@H](O)[C@H](C)O3)[C@H](N(C)C)[C@H]2O)[C@@H](CCNCCc2ccccc2)C[C@@H](C)C(=O)/C=C/C(C)=C/[C@@H]1C |
| 128 (≈ 125 µM) | 1 (≈ 0.976 µM) | 128 (≈ 125 µM) | 0.5 (≈ 0.488 µM) | 8 (≈ 7.81 µM) | 2 (≈ 1.95 µM) | CC[C@H]1OC(=O)C[C@@H](O)[C@H](C)[C@@H](O[C@@H]2O[C@H](C)[C@@H](O[C@H]3C[C@@](C)(O)[C@@H](O)[C@H](C)O3)[C@H](N(C)C)[C@H]2O)[C@@H](CCOc2ccc(OC)cc2)C[C@@H](C)C(=O)/C=C/C(C)=C/[C@@H]1CO[C@@H]1O[C@H](C)[C@@H](O)[C@@H](OC)[C@H]1OC |
| > 128 | 128 (≈ 180 µM) | > 128 | 128 (≈ 180 µM) | 64 (≈ 89.9 µM) | 64 (≈ 89.9 µM) | CC[C@H]1C[C@@H](C)C(=O)/C=C/C(C)=C/[C@H](C)[C@@H](CC)OC(=O)C[C@@H](O)[C@H](C)[C@H]1O[C@@H]1O[C@H](C)[C@@H](O[C@H]2C[C@@](C)(O)[C@@H](O)[C@H](C)O2)[C@H](N(C)C)[C@H]1O |
| > 128 | 2 (≈ 1.82 µM) | 4 (≈ 3.64 µM) | 1 (≈ 0.91 µM) | 1 (≈ 0.91 µM) | 2 (≈ 1.82 µM) | CC[C@H]1OC(=O)C[C@@H](O)[C@H](C)[C@@H](O[C@@H]2O[C@H](C)[C@@H](O[C@H]3C[C@@](C)(O)[C@@H](O)[C@H](C)O3)[C@H](N(C)C)[C@H]2O)[C@@H](CCOc2ccc(C(=O)c3ccccc3)cc2)C[C@@H](C)C(=O)/C=C/C(C)=C/[C@@H]1CO[C@@H]1O[C@H](C)[C@@H](O)[C@@H](OC)[C@H]1OC |
| > 128 | 0.5 (≈ 0.475 µM) | 8 (≈ 7.6 µM) | 0.5 (≈ 0.475 µM) | 0.5 (≈ 0.475 µM) | 0.5 (≈ 0.475 µM) | CC[C@H]1OC(=O)C[C@@H](O)[C@H](C)[C@@H](O[C@@H]2O[C@H](C)[C@@H](O[C@H]3C[C@@](C)(O)[C@@H](O)[C@H](C)O3)[C@H](N(C)C)[C@H]2O)[C@@H](CCOc2ccc(OC(C)=O)cc2)C[C@@H](C)C(=O)/C=C/C(C)=C/[C@@H]1CO[C@@H]1O[C@H](C)[C@@H](O)[C@@H](OC)[C@H]1OC |
| > 128 | 1 (≈ 0.978 µM) | 128 (≈ 125 µM) | 1 (≈ 0.978 µM) | 16 (≈ 15.7 µM) | 1 (≈ 0.978 µM) | CC[C@H]1OC(=O)C[C@@H](O)[C@H](C)[C@@H](O[C@@H]2O[C@H](C)[C@@H](O[C@H]3C[C@@](C)(O)[C@@H](O)[C@H](C)O3)[C@H](N(C)C)[C@H]2O)[C@@H](CCOc2ccc(C=O)cc2)C[C@@H](C)C(=O)/C=C/C(C)=C/[C@@H]1CO[C@@H]1O[C@H](C)[C@@H](O)[C@@H](OC)[C@H]1OC |
| > 128 | 2 (≈ 1.87 µM) | 8 (≈ 7.47 µM) | 2 (≈ 1.87 µM) | 1 (≈ 0.934 µM) | 2 (≈ 1.87 µM) | CC[C@H]1OC(=O)C[C@@H](O)[C@H](C)[C@@H](O[C@@H]2O[C@H](C)[C@@H](O[C@H]3C[C@@](C)(O)[C@@H](O)[C@H](C)O3)[C@H](N(C)C)[C@H]2O)[C@@H](CCOc2ccc(-c3ccccc3)cc2)C[C@@H](C)C(=O)/C=C/C(C)=C/[C@@H]1CO[C@@H]1O[C@H](C)[C@@H](O)[C@@H](OC)[C@H]1OC |

— ChEMBL document CHEMBL1124186, “Synthesis and evaluation of tylosin-related macrolides modified at the aldehyde function: a new series of orally effective antibiotics” (1988)
